Square brackets hold non-standard residues; d marks the D form. Peptide text beside a SMILES is read from it. sY = N[C@@H](Cc1ccc(OS(=O)(=O)O)cc1)C(=O)O; pGlu = O=C1CC[C@@H](C(=O)O)N1
How the values were obtained:
[1] = tested on: affinity-purified rabbit antibodies to ArSK/CCK1; experiment: ELISA specificity test of affinity-purified antibodies to ArSK/CCK1; assay type: binding; details: TEA fraction diluted 1:10; peptide 0.1 nmol (100 µl of 1 µM); mean of six replicates
Text: To generate antibodies to ArSK/CCK1, an N-terminally truncated peptide analog of ArSK/CCK1 with the addition of a reactive N-terminal lysine residue was synthesized (KY(SO3H)GHGLFW-NH2 , Peptide Protein Research Ltd, Fareham, UK). To generate antibodies to ArSK/CCKR, a peptide corresponding to the C-terminal 15 amino acids of ArSK/CCK-R with addition of an N-terminal reactive lysine residue was synthesized (KPSPTNYTNVSSDSSV, Peptide Protein Research Ltd, Fareham, UK). These peptides were conjugated to porcine thyroglobulin (Sigma-Aldrich, Gillingham, UK) as a carrier protein using 5% glutaraldehyde (Sigma-Aldrich, Gillingham, UK) in phosphate buffer (0.1 M; pH 7.2) and the conjugate was used for immunisation of a rabbit for ArSK/CCK1 (70-day protocol; Charles River Biologics, Romans, France) and a guinea pig for ArSK/CCKR (56-day protocol; Charles River Biologics, Romans, France). The antigens were emulsified in Freund’s complete adjuvant for primary immunisations (~100 nmol antigen peptide) and in Freund’s incomplete adjuvant for three booster immunisations (~50 nmol antigen peptide). The presence of antibodies to the antigen peptides in post-immunisation serum samples was assessed using an enzyme-linked immunosorbent assay (ELISA), in comparison with pre-immune serum (Figure 5—figure supplement 1a; Figure 6—figure supplement 1). Antibodies to the antigen peptides were purified from the final bleed antiserum by affinity purification using the AminoLink Plus Immobilization Kit (Thermo Fisher Scientific, Waltham, MA), with bound antibodies eluted using glycine elution buffer (6.3 ml of 100 mM glycine [VWR Chemicals, Leicestershire, UK] and 0.7 ml of Tris [1 M, pH = 7.0]) and […] (TEA) elution buffer (6.3 ml of TEA [Sigma-Aldrich, Gillingham, UK] and 0.7 ml of Tris [1 M, pH = 7.0]). Eluates were dialyzed and sodium azide (0.1%) was added for long-term storage of the affinity-purified antibodies at 4°C. The specificity of ArSK/CCK1 antibodies eluted with TEA, which were subsequently used for immunohistochemistry (see below), was assessed by ELISA by testing them at a concentration of 1:10 with the following synthetic peptides (100 µl at a concentration of 1 µM dissolved in carbonate/bicarbonate buffer [25 mM sodium carbonate, 25 mM sodium bicarbonate, pH = 9.8]): ArSK/CCK1, ArSK/CCK2, ArSK/CCK2(ns) and the A. rubens luqin-type peptide ArLQ (Figure 5—figure supplement 1b). The rabbit antiserum to ArSK/CCK1 has been assigned the RRID:AB_2877176 and the guinea pig antiserum to ArSK/CCKR has been assigned the RRID:AB_2891354.

[2] = target: T1, ArSK/CCKR (Asterias rubens, UniProt A0A8F2ZGB9); experiment: Aequorin bioluminescence receptor assay in CHO-K1 cells (G5A) co-transfected with ArSK/CCKR and human Gα16; assay type: cell-based; details: for EC50: luminescence as % of maximal response, four to six independent transfections, two to three replicates each, 3 × 10^−17 to 10^−4 M
T1 sequence (A0A8F2ZGB9 1-434): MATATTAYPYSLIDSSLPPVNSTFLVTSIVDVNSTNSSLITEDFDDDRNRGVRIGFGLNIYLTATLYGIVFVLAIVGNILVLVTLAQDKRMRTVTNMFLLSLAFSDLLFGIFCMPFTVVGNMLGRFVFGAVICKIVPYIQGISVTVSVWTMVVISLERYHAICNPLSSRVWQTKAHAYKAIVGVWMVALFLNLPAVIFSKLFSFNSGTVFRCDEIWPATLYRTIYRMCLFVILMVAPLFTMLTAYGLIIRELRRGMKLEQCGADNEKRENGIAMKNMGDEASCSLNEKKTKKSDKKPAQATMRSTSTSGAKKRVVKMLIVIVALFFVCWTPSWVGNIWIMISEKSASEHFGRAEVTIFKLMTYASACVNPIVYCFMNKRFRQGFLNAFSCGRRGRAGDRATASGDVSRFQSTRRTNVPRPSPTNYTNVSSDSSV
Text: To enable testing of ArSK/CCK1 and ArSK/CCK2 as candidate ligands for ArSK/CCKR, a full-length cDNA encoding ArSK/CCKR was synthesized by GenScript (Piscataway, NJ) and cloned into pcDNA 3.1+ vector (Invitrogen, Thermo Fisher Scientific, Waltham, MA). A partial Kozak translation initiation sequence (CACC) was introduced upstream to the start codon (ATG). CHO-K1 cells stably expressing the mitochondrial targeted calcium-sensitive bioluminescent reporter GFP-aequorin fusion protein (G5A) ([Baubet et al., 2000]) were used as a heterologous expression system for ArSK/CCKR. These cells have been used previously for neuropeptide receptor deorphanisation ([Bauknecht and Jékely, 2015]) and were generously supplied to us by Dr Gáspár Jékely (University of Exeter). The cell line was generated using the CHO-K1 cell line from Sigma-Aldrich (85051005; RRID: CVCL_0214), which is certified by the European Collection of Authenticated Cell Cultures (ECACC), and expression of the GFP-aequorin fusion protein (G5A) in the cell line was determined by functionality in displaying calcium-activated luminescence. […] Cells were cultured, co-transfected with the pcDNA 3.1+ vector containing the ArSK/CCKR cDNA sequence and plasmids encoding the promiscuous human G-protein Gα16. Then bioluminescence-based receptor assays were performed, as described previously for A. rubens luqin-type receptors ([Yañez-Guerra et al., 2018]).
[…] Concentration-response data were determined as a percentage of the highest response for each peptide (100% activation). EC50 values were calculated from concentration-response curves based on four to six independent transfections and averaging two to three replicates in each transfection using Prism 6.0 (RRID:SCR_002798; GraphPad software, La Jolla, CA). Cells transfected with an empty vector were used for control experiments.

Row | SMILES | ELISA reactivity (optical density) with antibodies to ArSK/CCK1 [1] | potency as ligand for ArSK/CCKR compared with ArSK/CCK1 and ArSK/CCK2 ([2]; from EC50 values) | EC50 [2]
1 | CC(C)C[C@H](NC(=O)CNC(=O)[C@H](Cc1ccccc1)NC(=O)CNC(=O)[C@H](Cc1ccc(O)cc1)NC(=O)[C@H](CCC(N)=O)NC(=O)[C@H](CC(=O)O)NC(=O)[C@H](CC(=O)O)NC(=O)CNC(=O)CN)C(=O)N[C@@H](Cc1ccccc1)C(=O)N[C@@H](Cc1ccccc1)C(N)=O [ArSK/CCK2(ns)] (H-GGDDQYGFGLFF-NH2; N-terminus assumed) | do not cross-react | five to six orders of magnitude less potent | 48000 nM
2 | CC(C)C[C@H](NC(=O)CNC(=O)[C@H](Cc1c[nH]cn1)NC(=O)CNC(=O)[C@H](Cc1ccc(OS(=O)(=O)O)cc1)NC(=O)[C@H](CC(=O)O)NC(=O)[C@H](CC(=O)O)NC(=O)[C@@H](NC(=O)[C@H](CCCCN)NC(=O)[C@H](CO)NC(=O)[C@@H]1CCC(=O)N1)C(C)C)C(=O)N[C@@H](Cc1ccccc1)C(=O)N[C@@H](Cc1c[nH]c2ccccc12)C(N)=O [ArSK/CCK1] ([pGlu]SKVDD[sY]GHGLFW-NH2) | above the OD value for the negative control |  | 0.25 nM
3 | CC(C)C[C@H](NC(=O)CNC(=O)[C@H](Cc1ccccc1)NC(=O)CNC(=O)[C@H](Cc1ccc(OS(=O)(=O)O)cc1)NC(=O)[C@H](CCC(N)=O)NC(=O)[C@H](CC(=O)O)NC(=O)[C@H](CC(=O)O)NC(=O)CNC(=O)CN)C(=O)N[C@@H](Cc1ccccc1)C(=O)N[C@@H](Cc1ccccc1)C(N)=O [ArSK/CCK2] (H-GGDDQ[sY]GFGLFF-NH2; N-terminus assumed) | do not cross-react |  | 0.12 nM
